Measurements: ChEMBL document CHEMBL1201862, “PubChem BioAssay data set” (2004)
Counter-ions that a name gives are not always drawn.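 Interpolation was linear, between the two tested concentrations surrounding the appropriate level; five concentrations were tested over 48 hours in 96-well plates. GI50: concentration for 50% inhibition of growth.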 Calls of active or inactive are those of the source. Cut-off read from the data, not from the text of the source: active = GI50 up to about 1.1 µM and inactive = higher. Starred links: 1 amine or outer side, 2 acyl side, 3 side chain; linkers in the order of their positions; H or OH if unused. Non-standard residues stand in square brackets, D forms with d. Residues, ends and D or L forms follow the SMILES beside them. ξ: configuration not given here. Ile(3ξ) = CCC(C)[C@H](N)C(=O)O; X35 = C=CCC(O[*:1])C(=O)[*:2]; NMeV = CN[C@H](C(=O)O)C(C)C; NMeA = CN[C@@H](C)C(=O)O; βAla = NCCC(=O)O

How the values were obtained:
Experiment in all cases: growth of human tumour cells (NCI), 48 h
K562 = test system: K562
M14 = test system: M14
LOX IMVI = test system: LOX IMVI
HCT-116 = test system: HCT-116
SK-MEL-28 = test system: SK-MEL-28
COLO 205 = test system: COLO 205
SF-295 = test system: SF-295
EKVX = test system: EKVX
U-251 = test system: U-251
786-0 = test system: 786-0
SK-MEL-2 = test system: SK-MEL-2
MOLT-4 = test system: MOLT-4
RPMI-8226 = test system: RPMI-8226
KM12 = test system: KM12
SK-MEL-5 = test system: SK-MEL-5
OVCAR-3 = test system: OVCAR-3
UO-31 = test system: UO-31
NCI-H522 = test system: NCI-H522
OVCAR-4 = test system: OVCAR-4

Measured: GI50

O=c1[nH]c2ccccc2c(=O)n1/N=C/c1ccc(O)cc1
inactive: K562 > 100 µM | M14 > 100 µM | LOX IMVI 60.4 µM | HCT-116 > 100 µM | SK-MEL-28 > 100 µM | COLO 205 > 100 µM | SF-295 50.7 µM | EKVX > 100 µM | U-251 79.4 µM | 786-0 30.8 µM | SK-MEL-2 66.7 µM | MOLT-4 > 100 µM | RPMI-8226 > 100 µM | KM12 > 100 µM | SK-MEL-5 > 100 µM | OVCAR-3 > 100 µM | UO-31 > 100 µM

COc1ccc(C2=NN(C(C)=O)c3nc4ccccc4nc3O2)cc1
inactive: K562 > 100 µM | NCI-H522 20.8 µM | HCT-116 53.3 µM | SK-MEL-28 92.3 µM | COLO 205 > 100 µM | SF-295 26.1 µM | EKVX 45.6 µM | U-251 18.9 µM | 786-0 15.2 µM | SK-MEL-2 8.02 µM | MOLT-4 > 100 µM | RPMI-8226 > 100 µM | KM12 > 100 µM | OVCAR-4 11 µM | OVCAR-3 > 100 µM | UO-31 46.9 µM

CC(C)S(=O)(=O)n1c(N)nc2ccc(/C(=N/O)c3ccccc3)cc21 [ENVIROXIME]
inactive: K562 27.2 µM | M14 17.9 µM | NCI-H522 17.2 µM | HCT-116 18.6 µM | SK-MEL-28 36.1 µM | COLO 205 17.5 µM | SF-295 18.2 µM | EKVX 16.4 µM | U-251 39.3 µM | 786-0 40.3 µM | SK-MEL-2 20.9 µM | MOLT-4 14 µM | RPMI-8226 10.3 µM | KM12 20.6 µM | OVCAR-4 23.5 µM | OVCAR-3 18.6 µM | UO-31 17.3 µM

O=C1NC2OCC(O)C(O)C2O1 (stereo unspecified)
inactive: K562 > 100 µM | M14 > 100 µM | LOX IMVI > 100 µM | NCI-H522 > 100 µM | HCT-116 > 100 µM | SK-MEL-28 > 100 µM | COLO 205 > 100 µM | SF-295 > 100 µM | EKVX > 100 µM | U-251 > 100 µM | 786-0 > 100 µM | SK-MEL-2 > 100 µM | MOLT-4 > 100 µM | KM12 > 100 µM | SK-MEL-5 > 100 µM | OVCAR-4 > 100 µM | OVCAR-3 > 100 µM | UO-31 > 100 µM

C=CCc1cc(OC)c2c(c1)C(O)CC(c1ccc(OC)c(OC)c1)O2 (stereo unspecified)
inactive: K562 16.3 µM | M14 > 100 µM | NCI-H522 > 100 µM | HCT-116 > 100 µM | SK-MEL-28 > 100 µM | COLO 205 > 100 µM | SF-295 > 100 µM | EKVX > 100 µM | U-251 > 100 µM | 786-0 > 100 µM | SK-MEL-2 > 100 µM | MOLT-4 38.6 µM | KM12 > 100 µM | SK-MEL-5 58.3 µM | OVCAR-4 > 100 µM | OVCAR-3 > 100 µM | UO-31 > 100 µM

C=CCC1OC(=O)CCNC(=O)[C@H](C)N(C)C(=O)[C@H](C(C)C)N(C)C(=O)[C@H](C(C)CC)NC(=O)[C@@H]2CCCN2C1=O (stereo partly specified) (cyclo([Ile(3ξ)][NMeV][NMeA][βAla][X35]P))
inactive: K562 5 µM | M14 2.61 µM | LOX IMVI 9.16 µM | HCT-116 3.94 µM | SK-MEL-28 33.8 µM | COLO 205 5.14 µM | SF-295 4.41 µM | EKVX > 100 µM | U-251 > 53 µM | 786-0 5.58 µM | SK-MEL-2 3.13 µM | MOLT-4 3.57 µM | RPMI-8226 4.91 µM | KM12 8.43 µM | SK-MEL-5 2.97 µM | OVCAR-4 6.75 µM | OVCAR-3 13.3 µM | UO-31 33 µM

CC1=NCCc2c1[nH]c1cc(O)ccc21 [HARMALOL HYDROCHLORIDE]
inactive: K562 > 100 µM | M14 > 100 µM | LOX IMVI > 100 µM | HCT-116 > 100 µM | SK-MEL-28 > 100 µM | COLO 205 > 100 µM | SF-295 > 100 µM | EKVX > 100 µM | 786-0 > 100 µM | SK-MEL-2 > 100 µM | MOLT-4 > 100 µM | RPMI-8226 > 100 µM | KM12 > 100 µM | SK-MEL-5 > 100 µM | OVCAR-4 > 100 µM | OVCAR-3 > 100 µM | UO-31 > 100 µM

C/C(=N\NC(=O)CC#N)c1c(O)cc(C)oc1=O
inactive: K562 > 100 µM | M14 > 100 µM | LOX IMVI > 100 µM | HCT-116 > 100 µM | SK-MEL-28 > 100 µM | SF-295 > 100 µM | EKVX > 100 µM | U-251 > 100 µM | 786-0 > 100 µM | SK-MEL-2 > 100 µM | MOLT-4 > 100 µM | KM12 > 100 µM | SK-MEL-5 > 100 µM | OVCAR-4 > 100 µM | UO-31 > 100 µM

Nc1nc(Cl)c2ncn(CCCC(c3ccccc3)P(=O)(O)O)c2n1 (stereo unspecified)
inactive: K562 > 100 µM | M14 > 100 µM | LOX IMVI > 100 µM | NCI-H522 > 100 µM | HCT-116 > 100 µM | SK-MEL-28 > 100 µM | COLO 205 > 100 µM | SF-295 > 100 µM | U-251 > 100 µM | 786-0 > 100 µM | SK-MEL-2 > 100 µM | RPMI-8226 > 100 µM | KM12 > 100 µM | SK-MEL-5 > 100 µM | OVCAR-3 > 100 µM | UO-31 > 100 µM

O=C1N[C@@H]2O[C@H](CNC(=O)c3cc(Br)c[nH]3)C[C@]2(O)N1.O=C1N[C@H]2O[C@H](CNC(=O)c3cc(Br)c[nH]3)C[C@@]2(O)N1
inactive: K562 > 100 µM | M14 > 100 µM | NCI-H522 > 100 µM | HCT-116 > 100 µM | SK-MEL-28 > 100 µM | COLO 205 > 100 µM | SF-295 > 100 µM | EKVX > 100 µM | U-251 > 100 µM | 786-0 > 100 µM | SK-MEL-2 > 100 µM | MOLT-4 > 100 µM | RPMI-8226 > 100 µM | KM12 > 100 µM | SK-MEL-5 > 100 µM | OVCAR-4 > 100 µM | OVCAR-3 > 100 µM | UO-31 > 100 µM

CCN(CC)c1ccc(/N=C2\C=C(Cl)C(=O)c3ncccc32)c(C)c1
inactive: K562 2.28 µM | M14 2.9 µM | LOX IMVI 5.15 µM | HCT-116 3.24 µM | SK-MEL-28 8.2 µM | COLO 205 4.2 µM | SF-295 15.6 µM | EKVX 11.2 µM | U-251 4.88 µM | 786-0 3.08 µM | SK-MEL-2 7.74 µM | MOLT-4 2.88 µM | RPMI-8226 3.37 µM | SK-MEL-5 3.18 µM | OVCAR-4 5.27 µM | OVCAR-3 1.91 µM | UO-31 12.4 µM
